Results on 2 molecules are retold here after article PMC6105804, “In Vitro and In Vivo Evaluation of APX001A/APX001 and Other Gwt1 Inhibitors against Cryptococcus” (Antimicrobial Agents and Chemotherapy, 2018).

Details of series [1]: method as in ref 23 = [23]; 23. Zhao Y , Lee M , Lee A , Paderu P , Park S , Perlin DS 2018 APX001 is effective against echinocandin and multi-drug resistant Candida isolates . Abstr 28th ECCMID , Madrid, Spain . Conditions: female CD-1 mice, cited from earlier work.
A short description of series [2]: Single-dose mouse pharmacokinetics of prodrugs with or without ABT. The class given is in vivo. Conditions: for AUC: male, CD-1, mouse, plasma, 26 mg/kg. How it is done:
The area under the curve (AUC) was calculated from time zero to the time of the last measurable concentration. The active metabolite concentrations in plasma (APX001A, APX2039, APX2020, and APX2041) were determined by liquid chromatography-tandem mass spectrometry. PK parameters were determined using Phoenix WinNonlin (v7.0) software and a noncompartmental model.

Series [3] deals with Candida tropicalis strains. Further details: method as in ref 24 = [24]; 24. Watanabe NA , Horii T , Miyazaki M , Hata K 2011 In vitro activity of E1210 and in vivo activity of E1211, a water-soluble prodrug of E1210, in combination with other antifungals, abstr F1-1378 . As to conditions: cited from earlier work.
For series [4] the following is noted: mouse, in vivo; cited from earlier work.
A further series relates to C. neoformans strain H99. In words: Murine model of cryptococcal meningitis, APX001 alone and with FLC (no ABT). The format is in vivo, Cryptococcus neoformans. As to conditions: monotherapy 7 days; APX001 390 mg/kg TID oral gavage, FLC 80 mg/kg/day i.p.; male CD-1 mice. How it is done:
The efficacies of APX001 and FLC were evaluated in a well-established mouse CM model ([34]). Since Cryptococcus infections can be hematogenously disseminated to other organs, the numbers of CFU in both lung and brain tissue were evaluated. Male CD-1 mice were infected with 5.9 × 10^4 CFU of C. neoformans strain H99 via lateral tail vein injection. Mice were assigned to four groups (n = 10), consisting of (i) treatment with APX001, (ii) treatment with APX001 plus FLC, (iii) treatment with FLC, or (iv) no treatment as a control. Treatment was initiated within 1 h after infection. APX001 was administered by oral gavage at a dose of 390 mg/kg thrice daily (TID), with each dose being administered roughly 8 h apart. […] FLC (2 mg/ml; Sagent Pharmaceuticals, Schaumburg, IL) was administered at a dose of 80 mg/kg/day intraperitoneally (i.p.).
Brain and lung burdens in mice were measured at 7 days postinfection with C. neoformans H99. Male CD-1 mice were infected with 5.9 × 10^4 CFU of C. neoformans strain H99 via the lateral tail vein. Treatment was initiated at about 1 h postinfection and continued for 7 days. APX001 was administered by oral gavage at a dose of 390 mg/kg thrice daily, with each dose being administered roughly 8 h apart. FLC (2 mg/ml; Sagent Pharmaceuticals, Schaumburg, IL) was administered at a dose of 80 mg/kg/day i.p. once daily. Fungal burden data were log10 transformed and evaluated using Kruskal-Wallis tests with Dunn's multiple-comparison test for post hoc analysis (Prism software, v5; GraphPad Software, Inc., San Diego, CA). A P value of ≤0.05 was considered statistically significant (*, P ≤ 0.05; **, P ≤ 0.01; ***, P ≤ 0.001). The 95% confidence interval (CI) is presented.
C. neoformans strain H99 was grown in yeast extract-peptone-dextrose broth at 30°C on a shaker (220 rpm) for 24 h, centrifuged (1,980 relative centrifugal force), and washed twice in phosphate-buffered saline (PBS), resuspended in PBS, and quantified by hemacytometric count. Male CD-1 mice were infected with ∼5 × 10^4 CFU per mouse via lateral tail vein injection of 100 μl. Mice were weighed, and treatment was begun within 1 h after infection. Treatments were administered daily for 7 days. Mice were weighed daily and observed for acute and chronic adverse symptoms. Mice were sacrificed on day 8, and the brain and left lung were homogenized and cultured for quantitative determination of the tissue burden (number of CFU per gram of tissue). Tissues were homogenized for 25 s in 1 ml phosphate-buffered saline using two 6.5-mm steel beads and a Mini-Beadbeater 16 apparatus (Biospec Products, Inc., Bartlesville, OK) and serially diluted in 10-fold steps. Aliquots (100 μl) of homogenate were plated and incubated for 3 to 7 days at 37°C. Fungal burden data were log10 transformed and evaluated using Kruskal-Wallis tests with Dunn's multiple-comparison test for post hoc analysis (Prism software, v5; GraphPad Software, Inc., San Diego, CA). A P value of ≤0.05 was considered statistically significant.

Setting [5] is: 100-mg/kg ABT orally 2 h prior to APX001 i.p.

Where two headings read alike, the source gives them in different places.

`Nc1ncccc1-c1cc(Cc2ccc(COc3ccccn3)cc2)no1` [APX001A]: the “fold increase in AUC with ABT” value in series [1] (setting [5]) is recorded as 9 fold. Moreover, in series [1] (setting [5]), the “half-life of the active moiety with ABT” value was 8.8 h. In addition, the “half-life of the active moiety without ABT” value in series [1] (APX001 i.p.) is on record as 1.3 h. For the same molecule, in series [2] (26 mg/kg prodrug), the “Ratio of AUC with ABT/AUC without ABT, i.p. dosing” value is reported as 5.6. For the same molecule, the “Ratio of AUC with ABT/AUC without ABT, p.o. dosing” value in series [2] (26 mg/kg prodrug) was 15.0. The AUC in series [2] (intraperitoneal, AUC of analyte after 26 mg/kg prodrug, 100 mg/kg ABT orally 2 h before, read-out: Avg AUC resulting from 26-mg/kg dose, i.p. dosing + ABT) was 24300 ± 17700 ng·h/mL; in series [2] (ip, AUC of analyte after 26 mg/kg of the corresponding prodrug, male CD-1 mice, no ABT, read-out: Avg AUC resulting from 26-mg/kg dose, i.p. dosing), 4360 ± 110 ng·h/mL; in series [2] (po, AUC of analyte after 26 mg/kg prodrug, 100 mg/kg ABT orally 2 h before, read-out: Avg AUC resulting from 26-mg/kg dose, p.o. dosing + ABT), 41500 ± 8090 ng·h/mL; in series [2] (po, AUC of analyte in plasma after 26 mg/kg of the corresponding prodrug, male CD-1 mice, no ABT, read-out: Avg AUC resulting from 26-mg/kg dose, p.o. dosing), 2760 ± 230 ng·h/mL. Besides, the “strains with synergy with FLC” value in series [3] was 9 of 10. Moreover, the half-life in mice in series [4] was 1.40 to 2.75 h.
On to `OC(Cn1cncn1)(Cn1cncn1)c1ccc(F)cc1F` [FLC, fluconazole, reference compound], for which, in the series with C. neoformans strain H99, the “reduction in brain fungal burden vs untreated control” value is given as 1.04 log10 CFU/g and the “reduction in lung fungal burden vs untreated control” value is recorded as 1.30 log10 CFU/g.
